Laboratory results taken from the supplement of paper PMC10307832.

Tests used:
Test in all cases: relative viability (nuclei count vs DMSO), 5 days (fraction); higher = more cells survive
CAL-12T = system: CAL-12T
In short: (§1)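 Values are medians from duplicate plates. Each reflects relative viability, defined as the nuclei count of treated wells over that of vehicle wells. Lung cancer cell lines in 1536-well plates were pin-tool dosed one day after seeding with one drug alone or with a fixed anchor-drug dose plus five library-drug doses (not always all listed) in √10 steps, then fixed, stained and imaged at 4× after 5 days.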

ChaGo-K-1 = system: ChaGo-K-1
In short: as §1

HCC-366 = system: HCC-366
In short: as §1

HCC-78 = system: HCC-78
In short: as §1

LC-2-ad = system: LC-2-ad
In short: as §1

LOU-NH91 = system: LOU-NH91
In short: as §1

LU99A = system: LU99A
In short: as §1

NCI-H1395 = system: NCI-H1395
In short: as §1

NCI-H1651 = system: NCI-H1651
In short: as §1

NCI-H1734 = system: NCI-H1734
In short: as §1

NCI-H1755 = system: NCI-H1755
In short: as §1

NCI-H1793 = system: NCI-H1793
In short: as §1

NCI-H1944 = system: NCI-H1944
In short: as §1

NCI-H2087 = system: NCI-H2087
In short: as §1

NCI-H2170 = system: NCI-H2170
In short: as §1

NCI-H2228 = system: NCI-H2228
In short: as §1

NCI-H2405 = system: NCI-H2405
In short: as §1

NCI-H3122 = system: NCI-H3122
In short: as §1

NCI-H460 = system: NCI-H460
In short: as §1

PC-3 [JPC-3] = system: PC-3 [JPC-3]
In short: as §1

RERF-LC-KJ = system: RERF-LC-KJ
In short: as §1

UMC-11 = system: UMC-11
In short: as §1

For O=C(O)c1ccc(-c2c[nH]c3ncc(-c4ccccc4)cc23)cc1C1CCCC1 + CC(=O)Nc1cccc(-n2c(=O)n(C3CC3)c(=O)c3c(Nc4ccc(I)cc4F)n(C)c(=O)c(C)c32)c1 [Trametinib] (partner 0.02 µM), the relative viability (CAL-12T; first compound 0.04 µM) was 0.327, the relative viability (CAL-12T; first compound 0.1265 µM) was 0.372 and the relative viability (CAL-12T; first compound 0.4 µM) was 0.369. It also gave a relative viability (CAL-12T; first compound 1.265 µM) of 0.333, a relative viability (ChaGo-K-1; first compound 0.04 µM) of 1.15 and a relative viability (ChaGo-K-1; first compound 0.1265 µM) of 0.895. For the same compound, the relative viability (ChaGo-K-1; first compound 0.4 µM) was 0.89, the relative viability (ChaGo-K-1; first compound 1.265 µM) was 0.857 and the relative viability (HCC-366; first compound 0.04 µM) was 0.343. For the same compound, the relative viability (HCC-366; first compound 0.1265 µM) was 0.466, the relative viability (HCC-366; first compound 0.4 µM) was 0.311 and the relative viability (HCC-366; first compound 1.265 µM) was 0.309. For the same compound, the relative viability (HCC-78; first compound 0.1265 µM) was 0.937, the relative viability (HCC-78; first compound 0.4 µM) was 0.945 and the relative viability (HCC-78; first compound 1.265 µM) was 0.829. It also gave a relative viability (LC-2-ad; first compound 0.04 µM) of 0.876, a relative viability (LC-2-ad; first compound 0.1265 µM) of 0.921 and a relative viability (LC-2-ad; first compound 0.4 µM) of 0.897. The relative viability (LC-2-ad; first compound 1.265 µM) was 0.769, the relative viability (LOU-NH91; first compound 0.04 µM) was 0.774 and the relative viability (LOU-NH91; first compound 0.1265 µM) was 0.848. It also gave a relative viability (LOU-NH91; first compound 0.4 µM) of 0.773, a relative viability (LOU-NH91; first compound 1.265 µM) of 0.681 and a relative viability (LU99A; first compound 0.04 µM) of 0.575. For the same compound, the relative viability (LU99A; first compound 0.1265 µM) was 0.516, the relative viability (LU99A; first compound 0.4 µM) was 0.52 and the relative viability (LU99A; first compound 1.265 µM) was 0.51. It also gave a relative viability (NCI-H1395; first compound 0.04 µM) of 0.987, a relative viability (NCI-H1395; first compound 0.1265 µM) of 1.09 and a relative viability (NCI-H1395; first compound 0.4 µM) of 1.02. For the same compound, the relative viability (NCI-H1395; first compound 1.265 µM) was 0.957, the relative viability (NCI-H1651; first compound 0.04 µM) was 0.822 and the relative viability (NCI-H1651; first compound 0.1265 µM) was 0.853. It also gave a relative viability (NCI-H1651; first compound 0.4 µM) of 0.829, a relative viability (NCI-H1651; first compound 1.265 µM) of 0.714 and a relative viability (NCI-H1734; first compound 0.04 µM) of 0.618. The relative viability (NCI-H1734; first compound 0.1265 µM) was 0.706, the relative viability (NCI-H1734; first compound 0.4 µM) was 0.614 and the relative viability (NCI-H1734; first compound 1.265 µM) was 0.585. The relative viability (NCI-H1755; first compound 0.04 µM) was 0.778, the relative viability (NCI-H1755; first compound 0.1265 µM) was 0.777 and the relative viability (NCI-H1755; first compound 0.4 µM) was 0.799. For the same compound, the relative viability (NCI-H1755; first compound 1.265 µM) was 0.754, the relative viability (NCI-H1793; first compound 0.04 µM) was 0.407 and the relative viability (NCI-H1793; first compound 0.1265 µM) was 0.51. For the same compound, the relative viability (NCI-H1793; first compound 0.4 µM) was 0.497, the relative viability (NCI-H1793; first compound 1.265 µM) was 0.34 and the relative viability (NCI-H1944; first compound 0.04 µM) was 0.405. For the same compound, the relative viability (NCI-H1944; first compound 0.1265 µM) was 0.437, the relative viability (NCI-H1944; first compound 0.4 µM) was 0.487 and the relative viability (NCI-H1944; first compound 1.265 µM) was 0.37. It also gave a relative viability (NCI-H2087; first compound 0.04 µM) of 0.204, a relative viability (NCI-H2087; first compound 0.1265 µM) of 0.209 and a relative viability (NCI-H2087; first compound 0.4 µM) of 0.179. The relative viability (NCI-H2087; first compound 1.265 µM) was 0.205, the relative viability (NCI-H2170; first compound 0.04 µM) was 0.899 and the relative viability (NCI-H2170; first compound 0.1265 µM) was 0.925. The relative viability (NCI-H2170; first compound 0.4 µM) was 0.887, the relative viability (NCI-H2170; first compound 1.265 µM) was 0.79 and the relative viability (NCI-H2228; first compound 0.04 µM) was 0.548. The relative viability (NCI-H2228; first compound 0.1265 µM) was 0.581, the relative viability (NCI-H2228; first compound 0.4 µM) was 0.633 and the relative viability (NCI-H2228; first compound 1.265 µM) was 0.305. The relative viability (NCI-H2405; first compound 0.04 µM) was 0.64, the relative viability (NCI-H2405; first compound 0.1265 µM) was 0.651 and the relative viability (NCI-H2405; first compound 0.4 µM) was 0.627. It also gave a relative viability (NCI-H2405; first compound 1.265 µM) of 0.587, a relative viability (NCI-H3122; first compound 0.04 µM) of 0.196 and a relative viability (NCI-H3122; first compound 0.1265 µM) of 0.24. For the same compound, the relative viability (NCI-H3122; first compound 0.4 µM) was 0.253, the relative viability (NCI-H3122; first compound 1.265 µM) was 0.277 and the relative viability (NCI-H460; first compound 0.04 µM) was 0.13. The relative viability (NCI-H460; first compound 0.1265 µM) was 0.189, the relative viability (NCI-H460; first compound 0.4 µM) was 0.238 and the relative viability (NCI-H460; first compound 1.265 µM) was 0.23. The relative viability (PC-3 [JPC-3]; first compound 0.04 µM) was 0.656, the relative viability (PC-3 [JPC-3]; first compound 0.1265 µM) was 0.756 and the relative viability (PC-3 [JPC-3]; first compound 0.4 µM) was 0.752. The relative viability (PC-3 [JPC-3]; first compound 1.265 µM) was 0.647, the relative viability (RERF-LC-KJ; first compound 0.04 µM) was 0.916 and the relative viability (RERF-LC-KJ; first compound 0.1265 µM) was 0.908. For the same compound, the relative viability (RERF-LC-KJ; first compound 0.4 µM) was 0.814, the relative viability (RERF-LC-KJ; first compound 1.265 µM) was 0.657 and the relative viability (UMC-11; first compound 0.04 µM) was 0.702. The relative viability (UMC-11; first compound 0.1265 µM) was 0.719, the relative viability (UMC-11; first compound 0.4 µM) was 0.711 and the relative viability (UMC-11; first compound 1.265 µM) was 0.641.
